Assay results taken from PubChem BioAssay (NCI).
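GI50: concentration for 50% inhibition of growth. At the TGI there is no net growth.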

Tests used:
Experiment in all cases: NCI tumour cell line growth inhibition, 384-well format
MDA-MB-435 melanoma = test system: MDA-MB-435 melanoma
HCC-2998 colon = test system: HCC-2998 colon
SNB-19 CNS = test system: SNB-19 CNS
K-562 leukemia = test system: K-562 leukemia
NCI-H522 lung = test system: NCI-H522 lung
786-0 renal = test system: 786-0 renal
HS 578T breast = test system: HS 578T breast
RXF 393 renal = test system: RXF 393 renal
A549 NSCLC = test system: A549 NSCLC
UO-31 renal = test system: UO-31 renal
NCI-H460 NSCLC = test system: NCI-H460 NSCLC
PC-3 prostate = test system: PC-3 prostate
UACC-257 melanoma = test system: UACC-257 melanoma
HCT-116 colon = test system: HCT-116 colon
SF-539 CNS = test system: SF-539 CNS
DU-145 prostate = test system: DU-145 prostate
EKVX NSCLC = test system: EKVX NSCLC
NCI-H23 lung = test system: NCI-H23 lung
KM12 colon = test system: KM12 colon
OVCAR-4 ovarian = test system: OVCAR-4 ovarian
TK-10 renal = test system: TK-10 renal
SK-MEL-28 melanoma = test system: SK-MEL-28 melanoma
OVCAR-3 ovarian = test system: OVCAR-3 ovarian
MALME-3M melanoma = test system: MALME-3M melanoma
NCI-H226 lung = test system: NCI-H226 lung
SF-268 CNS = test system: SF-268 CNS
HOP-62 NSCLC = test system: HOP-62 NSCLC
ACHN renal = test system: ACHN renal
SN12C renal = test system: SN12C renal
SK-OV-3 ovarian = test system: SK-OV-3 ovarian
NCI-H322M lung = test system: NCI-H322M lung
HL-60(TB) leukemia = test system: HL-60(TB) leukemia
SF-295 CNS = test system: SF-295 CNS
SW-620 colon = test system: SW-620 colon
UACC-62 melanoma = test system: UACC-62 melanoma
SNB-75 CNS = test system: SNB-75 CNS
CAKI-1 renal = test system: CAKI-1 renal
M14 melanoma = test system: M14 melanoma
NCI/ADR-RES ovarian = test system: NCI/ADR-RES ovarian
HOP-92 NSCLC = test system: HOP-92 NSCLC
HT29 colon = test system: HT29 colon
A498 renal = test system: A498 renal
SK-MEL-5 melanoma = test system: SK-MEL-5 melanoma
COLO 205 colon = test system: COLO 205 colon
MDA-MB-231 breast = test system: MDA-MB-231 breast
HCT-15 colon = test system: HCT-15 colon
IGROV1 ovarian = test system: IGROV1 ovarian
RPMI-8226 leukemia = test system: RPMI-8226 leukemia
MDA-MB-468 breast = test system: MDA-MB-468 breast
OVCAR-8 ovarian = test system: OVCAR-8 ovarian
U251 glioblastoma = test system: U251 glioblastoma
T-47D breast = test system: T-47D breast
MCF7 breast = test system: MCF7 breast
CCRF-CEM leukemia = test system: CCRF-CEM leukemia
SR leukemia = test system: SR leukemia
LOX IMVI melanoma = test system: LOX IMVI melanoma
BT-549 breast = test system: BT-549 breast
MOLT-4 leukemia = test system: MOLT-4 leukemia

With CCS(=O)(=O)Nc1ccc(Oc2ccc(F)cc2F)c(-c2cn(C)c(=O)c3[nH]ccc23)c1 as the compound, how does the GI50 (MDA-MB-435 melanoma) read?
Its GI50 is 140 nM.

And the TGI (MDA-MB-435 melanoma)?
The TGI was 11500 nM.

What about the GI50 (HCC-2998 colon) of the same compound?
The GI50 was under 10 nM.

What about the TGI (HCC-2998 colon) of the same compound?
The TGI was 40.4 nM.

What about the GI50 (SNB-19 CNS) of the same compound?
Its GI50 is 40.7 nM.

What about the TGI (SNB-19 CNS) of the same compound?
Its TGI is 12100 nM.

What about the GI50 (K-562 leukemia) of the same compound?
Its GI50 is under 10 nM.

And the TGI (K-562 leukemia)?
Its TGI is 1970 nM.

And the GI50 (NCI-H522 lung)?
The GI50 was under 10 nM.

And the TGI (NCI-H522 lung)?
Its TGI is 114 nM.

And the GI50 ([…]-0 renal)?
Its GI50 is under 10 nM.

And the TGI (786-0 renal)?
Its TGI is 2120 nM.

What about the GI50 (HS 578T breast) of the same compound?
Its GI50 is under 10 nM.

What about the TGI (HS 578T breast) of the same compound?
Its TGI is 14.5 nM.

And the GI50 (RXF 393 renal)?
The GI50 was 308 nM.

What about the TGI (RXF 393 renal) of the same compound?
Its TGI is 2490 nM.

What about the GI50 (A549 NSCLC) of the same compound?
The GI50 was 34.6 nM.

And the TGI (A549 NSCLC)?
The TGI was 10600 nM.

And the GI50 (UO-31 renal)?
Its GI50 is 38.2 nM.

And the TGI (UO-31 renal)?
The TGI was 10300 nM.

What about the GI50 (NCI-H460 NSCLC) of the same compound?
Its GI50 is 30.5 nM.

What about the TGI (NCI-H460 NSCLC) of the same compound?
The TGI was 2140 nM.

And the GI50 (PC-3 prostate)?
The GI50 was 22.3 nM.

What about the TGI (PC-3 prostate) of the same compound?
The TGI was 10200 nM.

And the GI50 (UACC-257 melanoma)?
Its GI50 is 12.8 nM.

What about the TGI (UACC-257 melanoma) of the same compound?
The TGI was 1890 nM.

And the GI50 (HCT-116 colon)?
Its GI50 is 11.2 nM.

What about the TGI (HCT-116 colon) of the same compound?
The TGI was 1450 nM.

And the GI50 (SF-539 CNS)?
Its GI50 is 27.2 nM.

And the TGI (SF-539 CNS)?
Its TGI is 3200 nM.

And the GI50 (DU-145 prostate)?
The GI50 was 174 nM.

And the TGI (DU-145 prostate)?
Its TGI is 12500 nM.

And the GI50 (EKVX NSCLC)?
Its GI50 is 397 nM.

And the TGI (EKVX NSCLC)?
The TGI was 8660 nM.

What about the GI50 (NCI-H23 lung) of the same compound?
The GI50 was 10.5 nM.

What about the TGI (NCI-H23 lung) of the same compound?
The TGI was 237 nM.

What about the GI50 (KM12 colon) of the same compound?
Its GI50 is 10 nM.

And the TGI (KM12 colon)?
Its TGI is 1270 nM.

What about the GI50 (OVCAR-4 ovarian) of the same compound?
The GI50 was under 10 nM.

And the TGI (OVCAR-4 ovarian)?
The TGI was 79.3 nM.

And the GI50 (TK-10 renal)?
The GI50 was under 10 nM.

What about the TGI (TK-10 renal) of the same compound?
The TGI was 384 nM.

What about the GI50 (SK-MEL-28 melanoma) of the same compound?
The GI50 was 50.2 nM.

What about the TGI (SK-MEL-28 melanoma) of the same compound?
Its TGI is 2090 nM.

And the GI50 (OVCAR-3 ovarian)?
Its GI50 is under 10 nM.

What about the TGI (OVCAR-3 ovarian) of the same compound?
The TGI was 156 nM.

And the GI50 (MALME-3M melanoma)?
Its GI50 is 11.5 nM.

What about the TGI (MALME-3M melanoma) of the same compound?
The TGI was 779 nM.

And the GI50 (NCI-H226 lung)?
Its GI50 is under 10 nM.

What about the TGI (NCI-H226 lung) of the same compound?
Its TGI is 796 nM.

What about the GI50 (SF-268 CNS) of the same compound?
The GI50 was 67.4 nM.

And the TGI (SF-268 CNS)?
The TGI was 2740 nM.

What about the GI50 (HOP-62 NSCLC) of the same compound?
The GI50 was under 10 nM.

What about the TGI (HOP-62 NSCLC) of the same compound?
The TGI was 337 nM.

What about the GI50 (ACHN renal) of the same compound?
The GI50 was 59.7 nM.

What about the TGI (ACHN renal) of the same compound?
The TGI was 10100 nM.

What about the GI50 (SN12C renal) of the same compound?
Its GI50 is 24.8 nM.

And the TGI (SN12C renal)?
Its TGI is 3290 nM.

What about the GI50 (SK-OV-3 ovarian) of the same compound?
The GI50 was under 10 nM.

And the TGI (SK-OV-3 ovarian)?
The TGI was 504 nM.

What about the GI50 (NCI-H322M lung) of the same compound?
Its GI50 is under 10 nM.

And the TGI (NCI-H322M lung)?
The TGI was 1610 nM.

And the GI50 (HL-60(TB) leukemia)?
The GI50 was under 10 nM.

What about the TGI (HL-60(TB) leukemia) of the same compound?
The TGI was under 10 nM.

What about the GI50 (SF-295 CNS) of the same compound?
The GI50 was 120 nM.

And the TGI (SF-295 CNS)?
Its TGI is 4140 nM.

And the GI50 (SW-620 colon)?
Its GI50 is 174 nM.

What about the TGI (SW-620 colon) of the same compound?
The TGI was 1950 nM.

And the GI50 (UACC-62 melanoma)?
Its GI50 is under 10 nM.

What about the TGI (UACC-62 melanoma) of the same compound?
Its TGI is 583 nM.

What about the GI50 (SNB-75 CNS) of the same compound?
The GI50 was 112 nM.

What about the TGI (SNB-75 CNS) of the same compound?
The TGI was 5400 nM.

What about the GI50 (CAKI-1 renal) of the same compound?
The GI50 was under 10 nM.

What about the TGI (CAKI-1 renal) of the same compound?
The TGI was 475 nM.

And the GI50 (M14 melanoma)?
The GI50 was 12.7 nM.

And the TGI (M14 melanoma)?
The TGI was 10200 nM.

What about the GI50 (NCI/ADR-RES ovarian) of the same compound?
The GI50 was 82.6 nM.

What about the TGI (NCI/ADR-RES ovarian) of the same compound?
Its TGI is 1810 nM.

And the GI50 (HOP-92 NSCLC)?
The GI50 was 10.9 nM.

And the TGI (HOP-92 NSCLC)?
The TGI was 1520 nM.

What about the GI50 (HT29 colon) of the same compound?
Its GI50 is under 10 nM.

And the TGI (HT29 colon)?
The TGI was 11000 nM.

What about the GI50 (A498 renal) of the same compound?
Its GI50 is 21 nM.

What about the TGI (A498 renal) of the same compound?
The TGI was 3250 nM.

What about the GI50 (SK-MEL-5 melanoma) of the same compound?
Its GI50 is under 10 nM.

What about the TGI (SK-MEL-5 melanoma) of the same compound?
Its TGI is 876 nM.

What about the GI50 (COLO 205 colon) of the same compound?
The GI50 was under 10 nM.

What about the TGI (COLO 205 colon) of the same compound?
The TGI was 724 nM.

And the GI50 (MDA-MB-231 breast)?
Its GI50 is under 10 nM.

What about the TGI (MDA-MB-231 breast) of the same compound?
The TGI was 2850 nM.

And the GI50 (HCT-15 colon)?
The GI50 was under 10 nM.

What about the TGI (HCT-15 colon) of the same compound?
The TGI was 1050 nM.

What about the GI50 (IGROV1 ovarian) of the same compound?
The GI50 was under 10 nM.

What about the TGI (IGROV1 ovarian) of the same compound?
The TGI was 196 nM.

What about the GI50 (RPMI-8226 leukemia) of the same compound?
The GI50 was under 10 nM.

And the TGI (RPMI-8226 leukemia)?
Its TGI is under 10 nM.

And the GI50 (MDA-MB-468 breast)?
Its GI50 is 10.4 nM.

And the TGI (MDA-MB-468 breast)?
The TGI was 429 nM.

What about the GI50 (OVCAR-8 ovarian) of the same compound?
The GI50 was under 10 nM.

And the TGI (OVCAR-8 ovarian)?
The TGI was 131 nM.

And the GI50 (U251 glioblastoma)?
Its GI50 is 57.1 nM.

And the TGI (U251 glioblastoma)?
Its TGI is 1800 nM.

What about the GI50 (T-47D breast) of the same compound?
Its GI50 is 24.6 nM.

And the TGI (T-47D breast)?
Its TGI is 1430 nM.

What about the GI50 (MCF7 breast) of the same compound?
Its GI50 is under 10 nM.

And the TGI (MCF7 breast)?
The TGI was 1180 nM.

And the GI50 (CCRF-CEM leukemia)?
The GI50 was under 10 nM.

What about the TGI (CCRF-CEM leukemia) of the same compound?
Its TGI is 353 nM.

And the GI50 (SR leukemia)?
The GI50 was under 10 nM.

And the TGI (SR leukemia)?
The TGI was under 10 nM.

And the GI50 (LOX IMVI melanoma)?
Its GI50 is under 10 nM.

And the TGI (LOX IMVI melanoma)?
Its TGI is 14.4 nM.

And the GI50 (BT-549 breast)?
The GI50 was under 10 nM.

And the TGI (BT-549 breast)?
Its TGI is 172 nM.

What about the GI50 (MOLT-4 leukemia) of the same compound?
The GI50 was under 10 nM.

And the TGI (MOLT-4 leukemia)?
The TGI was 124 nM.
